Source: ChEMBL document CHEMBL5331106, “Investigation into the Mechanism of Action of the Tuberculosis Drug Candidate SQ109 and Its Metabolites and Analogues in Mycobacteria” (J Med Chem, 2023)

Legend:
[1] = tested on: Mycolicibacterium smegmatis; experiment: Antimycobacterial activity against Mycobacterium smegmatis assessed as inhibition of mycobacterial growth incubated for 48 hrs in presence of 50 uM undecaprenyl phosphate; type: functional, organism-based
[2] = tested on: Mycolicibacterium smegmatis; experiment: Antimycobacterial activity against Mycobacterium smegmatis assessed as inhibition of mycobacterial growth incubated for 48 hrs in presence of 200 uM undecaprenyl phosphate; type: functional, organism-based
[3] = target: T1, Undecaprenyl-diphosphatase (Escherichia coli (strain K12), UniProt P60932); experiment: Inhibition of UppP in Escherichia coli using FPP as substrate pretreated for 20 mins followed by FPP addition and measured after 60 mins by malachite green based assay
T1 sequence (P60932 whole entry): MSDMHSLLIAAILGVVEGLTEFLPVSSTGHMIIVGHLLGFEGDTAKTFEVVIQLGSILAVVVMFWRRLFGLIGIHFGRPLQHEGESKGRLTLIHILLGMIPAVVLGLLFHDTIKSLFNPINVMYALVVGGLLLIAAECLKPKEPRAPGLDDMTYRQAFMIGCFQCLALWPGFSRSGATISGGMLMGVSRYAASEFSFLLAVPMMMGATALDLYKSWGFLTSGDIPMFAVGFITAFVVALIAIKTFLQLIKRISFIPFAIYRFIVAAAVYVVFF

[4] = tested on: Mycobacterium tuberculosis; experiment: Antimycobacterial activity against Mycobacterium tuberculosis HN878 assessed as inhibition of mycobacterial growth incubated for 5 days in presence of 50 uM undecaprenyl phosphate; type: functional, organism-based; details: HN878, 120 h
[5] = tested on: Mycolicibacterium smegmatis; experiment: Antimycobacterial activity against Mycobacterium smegmatis assessed as inhibition of mycobacterial growth incubated for 48 hrs in presence of 100 uM menaquinone-7; type: functional, organism-based
[6] = Drug metabolism in Mycobacterium tuberculosis HN878 assessed as N1-(adamantan-1-yl)ethane-1,2-diamine metabolite formation at 10 uM incubated for 24 hrs by LC-MS analysis; type: ADME
[7] = Inhibition of Staphylococcus aureus dehydrosqualene synthase
[8] = tested on: Mycolicibacterium smegmatis; experiment: Antimycobacterial activity against Mycobacterium smegmatis assessed as inhibition of mycobacterial growth incubated for 48 hrs in presence of 25 uM menaquinone-4; type: functional, organism-based
[9] = Inhibition of Plasmodium vivax geranylgeranyl diphosphate synthase
[10] = target: T2, Trehalose monomycolate exporter MmpL3 (Mycolicibacterium smegmatis, UniProt A0QP27); experiment: Binding affinity to Mycobacterium smegmatis MmpL3 by surface plasmon resonance assay
T2 sequence (A0QP27 whole entry): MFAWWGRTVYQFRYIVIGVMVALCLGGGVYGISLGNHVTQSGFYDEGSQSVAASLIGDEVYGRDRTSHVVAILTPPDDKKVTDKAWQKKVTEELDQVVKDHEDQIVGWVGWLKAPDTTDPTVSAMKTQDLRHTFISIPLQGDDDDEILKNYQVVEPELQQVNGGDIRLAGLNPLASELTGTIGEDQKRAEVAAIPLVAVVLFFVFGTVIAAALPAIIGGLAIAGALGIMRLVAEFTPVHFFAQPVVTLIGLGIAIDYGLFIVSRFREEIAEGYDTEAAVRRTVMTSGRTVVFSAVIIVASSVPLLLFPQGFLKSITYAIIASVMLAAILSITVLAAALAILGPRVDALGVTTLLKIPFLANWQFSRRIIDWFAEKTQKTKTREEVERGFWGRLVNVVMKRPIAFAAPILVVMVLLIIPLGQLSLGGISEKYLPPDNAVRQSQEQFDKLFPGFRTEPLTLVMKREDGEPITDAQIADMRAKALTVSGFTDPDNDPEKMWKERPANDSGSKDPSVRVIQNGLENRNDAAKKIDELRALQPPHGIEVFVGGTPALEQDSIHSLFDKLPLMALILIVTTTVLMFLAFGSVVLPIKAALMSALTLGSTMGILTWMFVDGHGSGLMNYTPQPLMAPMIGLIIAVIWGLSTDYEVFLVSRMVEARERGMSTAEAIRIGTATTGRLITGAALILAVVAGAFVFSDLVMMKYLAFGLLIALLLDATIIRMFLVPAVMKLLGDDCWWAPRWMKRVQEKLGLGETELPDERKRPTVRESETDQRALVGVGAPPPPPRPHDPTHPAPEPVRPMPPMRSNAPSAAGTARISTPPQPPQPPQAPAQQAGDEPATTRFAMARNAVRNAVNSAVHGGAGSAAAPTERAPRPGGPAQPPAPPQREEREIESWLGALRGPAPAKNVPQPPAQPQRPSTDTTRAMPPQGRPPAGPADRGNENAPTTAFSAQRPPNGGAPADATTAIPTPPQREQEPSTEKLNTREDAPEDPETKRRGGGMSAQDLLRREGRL

[11] = target: T3, Decaprenyl diphosphate synthase (Mycobacterium tuberculosis, UniProt P9WFF7); experiment: Inhibition of Mycobacterium tuberculosis cis-decaprenyl diphosphate synthase
T3 sequence (P9WFF7 whole entry): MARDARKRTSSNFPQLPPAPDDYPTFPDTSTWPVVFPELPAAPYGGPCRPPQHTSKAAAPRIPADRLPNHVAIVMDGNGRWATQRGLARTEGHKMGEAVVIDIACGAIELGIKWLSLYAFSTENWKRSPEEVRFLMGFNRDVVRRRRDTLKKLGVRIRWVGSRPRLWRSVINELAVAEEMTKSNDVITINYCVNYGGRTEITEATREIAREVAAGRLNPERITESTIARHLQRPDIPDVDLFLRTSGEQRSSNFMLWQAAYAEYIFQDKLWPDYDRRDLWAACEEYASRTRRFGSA

Cell membrane = experiment: Uncoupling activity in Escherichia coli inverted membrane vesicles assessed as collapse of pH gradient by measuring increase in ACMA fluorescence intensity by fluorometric analysis; type: subcellular
[12] = tested on: Mycobacterium tuberculosis; experiment: Antimycobacterial activity against Mycobacterium tuberculosis HN878 assessed as inhibition of mycobacterial growth incubated for 5 days; type: functional, organism-based; details: HN878, 120 h
[13] = tested on: Mycolicibacterium smegmatis; experiment: Antimycobacterial activity against Mycobacterium smegmatis assessed as inhibition of mycobacterial growth incubated for 48 hrs in presence of 25 uM undecaprenyl phosphate; type: functional, organism-based
[14] = target: T4, (2Z,6E)-farnesyl diphosphate synthase (Mycobacterium tuberculosis, UniProt P9WFF5); experiment: Inhibition of Mycobacterium tuberculosis cis-farnesyl diphosphate synthase
T4 sequence (P9WFF5 whole entry): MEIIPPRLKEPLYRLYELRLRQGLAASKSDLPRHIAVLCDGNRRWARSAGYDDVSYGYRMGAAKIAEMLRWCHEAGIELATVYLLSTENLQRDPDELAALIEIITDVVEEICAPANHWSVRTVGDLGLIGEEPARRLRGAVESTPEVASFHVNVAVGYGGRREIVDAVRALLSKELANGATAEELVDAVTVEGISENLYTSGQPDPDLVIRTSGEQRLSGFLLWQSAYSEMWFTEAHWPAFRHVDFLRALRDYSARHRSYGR

[15] = tested on: Mycolicibacterium smegmatis; experiment: Antimycobacterial activity against Mycobacterium smegmatis assessed as inhibition of mycobacterial growth incubated for 48 hrs; type: functional, organism-based
[16] = tested on: Mycolicibacterium smegmatis; experiment: Rescue fold, ratio of IC50 for antimycobacterial activity against Mycobacterium smegmatis in presence of 50 uM undecaprenyl phosphate to IC50 for antimycobacterial activity against Mycobacterium smegmatis; type: functional
[17] = tested on: Mycolicibacterium smegmatis; experiment: Antimycobacterial activity against Mycobacterium smegmatis assessed as inhibition of mycobacterial growth incubated for 48 hrs in presence of 50 uM Upp; type: functional, organism-based
[18] = tested on: Mycolicibacterium smegmatis; experiment: Rescue fold, ratio of IC50 for antimycobacterial activity against Mycobacterium smegmatis in presence of 200 uM menaquinone-4 to IC50 for antimycobacterial activity against Mycobacterium smegmatis; type: functional
[19] = target: T2, Trehalose monomycolate exporter MmpL3; experiment: Binding affinity to C-terminal 10XHis-tagged Mycobacterium smegmatis mc2 155 MmpL3 expressed in Mycobacterium smegmatis mc2 155 cells by microscale thermophoresis analysis
[20] = tested on: Mycolicibacterium smegmatis; experiment: Antimycobacterial activity against Mycobacterium smegmatis assessed as inhibition of mycobacterial growth incubated for 48 hrs in presence of 50 uM menaquinone-4 and 50 uM undecaprenyl phosphate; type: functional, organism-based
[21] = Inhibition of Staphylococcus aureus undecaprenyl diphosphate synthase
[22] = tested on: Mycolicibacterium smegmatis; experiment: Antimycobacterial activity against Mycobacterium smegmatis assessed as inhibition of mycobacterial growth incubated for 48 hrs in presence of 100 uM undecaprenyl phosphate; type: functional, organism-based
[23] = tested on: Mycolicibacterium smegmatis; experiment: Rescue fold, ratio of IC50 for antimycobacterial activity against Mycobacterium smegmatis in presence of 100 uM menaquinone-7 to IC50 for antimycobacterial activity against Mycobacterium smegmatis; type: functional
[24] = tested on: Mycolicibacterium smegmatis; experiment: Antimycobacterial activity against Mycobacterium smegmatis assessed as inhibition of mycobacterial growth incubated for 48 hrs in presence of 200 uM menaquinone-4; type: functional, organism-based
[25] = Inhibition of Escherichia coli undecaprenyl diphosphate synthase
[26] = Inhibition of Staphylococcus aureus farnesyl diphosphate synthase
[27] = tested on: Mycolicibacterium smegmatis; experiment: Antimycobacterial activity against Mycobacterium smegmatis assessed as inhibition of mycobacterial growth incubated for 48 hrs in presence of 50 uM menaquinone-4; type: functional, organism-based
[28] = tested on: Mycolicibacterium smegmatis; experiment: Antimycobacterial activity against Mycobacterium smegmatis assessed as inhibition of mycobacterial growth incubated for 48 hrs in presence of 12.5 uM undecaprenyl phosphate; type: functional, organism-based
[29] = tested on: Mycolicibacterium smegmatis; experiment: Antimycobacterial activity against Mycobacterium smegmatis assessed as inhibition of mycobacterial growth incubated for 48 hrs in presence of 50 uM menaquinone-7; type: functional, organism-based

Compound `CC(C)=CCC/C(C)=C/CNCCNC1C2CC3CC(C2)CC1C3` (stereo not given) [SQ109] has an IC50 [1] of 16 µM, an IC50 [2] of 14 µM and an IC50 [3] of 32 µM. For the same compound, the IC50 [4] was 6.1 µM, the IC50 [5] was 6.5 µM and the Drug metabolism [6] was “Metabolite_Notdetected”. The IC50 [7] was ≥ 50 µM, the IC50 [8] was 2.1 µM and the IC50 [9] was ≥ 50 µM. The Kd [10] was 400 µM, the IC50 [11] was ≥ 50 µM and the IC50 (Cell membrane) was 2.3 µM. For the same compound, the IC50 [12] was 0.41 µM, the IC50 [13] was 8.9 µM and the IC50 [14] was ≥ 50 µM. The IC50 [15] was 1.5 µM, the “Ratio IC50” value [16] was 6.4 and the IC50 [17] was 1.4 µM. For the same compound, the “Ratio IC50” value [18] was 2, the Kd [19] was 1.6 µM and the IC50 [20] was 16 µM. For the same compound, the IC50 [21] was ≥ 50 µM, the IC50 [22] was 14 µM and the “Ratio IC50” value [23] was 3. For the same compound, the IC50 [24] was 4.8 µM, the IC50 [25] was ≥ 50 µM and the IC50 [26] was ≥ 50 µM. The IC50 [27] was 2.9 µM, the IC50 [28] was 3.7 µM and the IC50 [29] was 4.2 µM.
